Assay results as given in publication PMC9767854, “Discovery and mechanism studies of a novel ATG4B inhibitor Ebselen by drug repurposing and its anti-colorectal cancer effects in mice” (Cell & Bioscience, 2022).

What was measured:
[1] = target: T1, ATG4B (Homo sapiens, UniProt Q9Y4P1); experiment: Gel-based assay (SDS-PAGE and CBB staining of FRET-GATE-16 cleavage); assay type: biochemical; details: 1 μM
T1 construct: 6xHis; made in house; host or cells: E. coli BL21(DE3)
T1 sequence (Q9Y4P1 1-393): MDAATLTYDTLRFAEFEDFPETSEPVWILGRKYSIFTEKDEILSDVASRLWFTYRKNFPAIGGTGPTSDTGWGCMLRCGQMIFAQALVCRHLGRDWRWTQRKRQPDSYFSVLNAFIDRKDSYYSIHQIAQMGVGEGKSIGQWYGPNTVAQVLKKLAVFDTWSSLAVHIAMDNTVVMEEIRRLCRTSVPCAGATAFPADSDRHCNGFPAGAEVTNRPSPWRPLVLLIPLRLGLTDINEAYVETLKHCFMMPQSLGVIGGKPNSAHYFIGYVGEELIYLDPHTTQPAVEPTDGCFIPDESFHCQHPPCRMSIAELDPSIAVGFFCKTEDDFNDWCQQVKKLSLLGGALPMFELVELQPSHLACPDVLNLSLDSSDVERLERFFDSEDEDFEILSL
Protocol: Taking ATG4B as the target, we used the high-throughput FRET-based assay to screen the FDA-approved drugs library containing 1600 compounds (Fig. 1A). […] (Additional file 1: Figure S1C). Then twenty-four candidate compounds (marked in red) were noted through an initial screening at 10 μM (Fig. 1B). To further validate their inhibitory effect, a more rigorous and authentic approach as gel-based assay was carried out (Fig. 1C). The brake of the cleavage reaction of the substrate FRET-GATE-16 was very intuitively reflective of the compounds’ inhibitory effect on the ATG4B enzymatic activity. […] This was also verified in the FRET- and gel-based full concentration-response plot of compound 669 (Fig. 1D, E).
Fig. 1 Screening of ATG4B inhibitors based on the approved drugs library by FRET assay. A Illustration of the FRET-based high-throughput screening platform for ATG4B inhibitors. B Scatter plot of inhibition rate of approved library for ATG4B based on FRET assay. Candidate compounds were marked in red. […] C The inhibitory effect of twenty-four candidate compounds (10 μM) were detected by SDS-PAGE and Coomassie brilliant blue (CBB) staining according to the cleavage of substrates. […] D The dose-dependent inhibition of compound 669 (Ebselen) were determined by SDS-PAGE.

[2] = target: T2, Recombinant protein ATG4A (Homo sapiens, UniProt Q8WYN0); experiment: FRET-based assay for ATG4A activity; assay type: biochemical; details: FRET-based enzymatic cleavage
T2 construct: 6xHis; made in house; host or cells: E. coli BL21(DE3)
T2 sequence (Q8WYN0 whole entry): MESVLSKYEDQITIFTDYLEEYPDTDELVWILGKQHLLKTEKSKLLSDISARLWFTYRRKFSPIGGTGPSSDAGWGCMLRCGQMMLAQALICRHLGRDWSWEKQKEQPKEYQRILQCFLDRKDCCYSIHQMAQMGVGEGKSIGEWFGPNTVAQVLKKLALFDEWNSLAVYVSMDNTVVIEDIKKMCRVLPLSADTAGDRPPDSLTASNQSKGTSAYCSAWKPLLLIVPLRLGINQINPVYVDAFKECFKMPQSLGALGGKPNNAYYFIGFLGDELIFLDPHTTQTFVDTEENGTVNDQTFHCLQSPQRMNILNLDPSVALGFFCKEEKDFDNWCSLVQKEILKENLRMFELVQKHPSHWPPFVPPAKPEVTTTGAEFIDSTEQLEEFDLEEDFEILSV
Protocol: FRET-based assay for ATG4B or ATG4A activity was operated as previously described. Briefly, Recombinant protein ATG4B (0.75 μg/ml) or ATG4A (5 μg/ml) was incubated with compounds in reaction buffer (150 mM NaCl, 20 mM Tris–HCl, pH 8.0, 0.1% CHAPS, 1 mM EDTA) at 37 °C. After 30 min, substrate FRET-GATE-16 (50 μg/ml) was added to a final volume of 50 μl. The reaction was recorded via relative fluorescence intensity ratio of 527 nm/477 nm (RFU). The final inhibition rate of the compound for ATG4 was calculated as: (RFUcompound-RFUNC)/(RFUCON-RFUNC) × 100%; respectively, NC as negative control without inhibitor, CON as control without enzymes. For ATG4 activity determination in cells and tissues, cells or separated tumor samples were homogenized in a native lysis buffer (150 mM NaCl, 20 mM Tris–HCl, pH 7.6, 1% TritonX-100, 1 mM EDTA) without protease inhibitors. Then 5 μg total proteins from each sample was added into FRET assay system after clean supernatant proteins were separated. The reaction was recorded via relative fluorescence intensity ratio of 527 nm/477 nm. Finally, the inhibition rates of ATG4B were calculated with the vehicle or CM group as the negative control (ATG4 activity defined as 100%).

[3] = tested on: SW620; experiment: Autophagy flux by LC3B-II western blot in SW620; assay type: cell-based; details: Ebselen 10 μM with CQ 40 μM
Protocol: Fig. 5 Ebselen suppresses autophagy flux via inhibition of ATG4B. A, B HeLa cells were treated with Torin 1 (2 μM) or CQ (40 μM) and detected by western blot. C, D SW620 cells were transduced with sgCon and sgATG4B lentiviruses, respectively. Then cells were treated with CQ (40 μM) and detected by western blot. E, F HCT116 were treated with Ebselen (5 and 10 μM) or CQ (40 μM) and subjected to western blot. G, H SW620 were treated with Ebselen (10 μM) or CQ (40 μM) and western blotting was carried out to detect the protein levels. I, J Immunofluorescence analysis of endogenous LC3B in HCT116 treated with Ebselen (10 μM) or CQ (40 μM). Dots numbers for LC3B were derived from counting at least 20 cells and 5 fields from three independent replicated experiments. Bar = 10 μm. K HCT116 cells were treated with 2 μM Torin 1 in the presence or absence of 10 μM Ebselen for 12 h, then the level ratio of long-lived proteins was measured by flow cytometry
Immunoblotting assay was performed reportedly previously. Commonly, cells were lysed in ice-cold RIPA lysis buffer (Beyotime, P0013B) supplemented with Pierce™ protease inhibitor tablet (ThermoFisher Scientific, A32965). […]

[4] = tested on: HCT116 cells; experiment: Cell counting and colony formation assays; assay type: cell-based
Protocol: For colony formation, WT HCT116 and ATG4B KO HCT116 cells were seeded in 6-well plates at 800 cells per well and cultured for 9–12 days, respectively. Concurrently, medium containing indicated compounds were replaced every 3 days, before the cells were fixed in 4% paraformaldehyde for 20 min and washed with PBS three times. Then colonies were stained with crystal violet (Beyotime, C0121) for 1 h and excess dyes were washed with PBS. Eventually, colonies more than 1 mm were counted in at least three independent experiments.
WT/ATG4B KO HCT116, WT/ATG4B KO SW620 and WT/ATG4B KO RKO cells were seeded in 96-well plate at 1000–1500 cells per well for cell viability assay, and seed in 6-well plate at 1 × 10^5 cells per well for cell number counting. After 12 h, the indicated drugs were added to the medium and cultured for another 96 h. Total viable cell numbers were counted by a cell counter (BioRAD), and cell viability was determined by cell-count-8 assay kit (CCK-8, Bimake, B34304) according to the manufacturer’s protocol.

O=c1c2ccccc2[se]n1-c1ccccc1 [Ebselen]
inhibition of ATG4B in gel [1]: complete inhibition
inhibition of ATG4A compared to ATG4B [2]: weaker inhibition
autophagic flux (LC3B-II) [3]: inhibition of autophagic flux
cell proliferation and colony formation [4]: significantly inhibit
